# Laboratory results published in patent publication US4283328A, “Preparation of dehydropeptides” (Research Corporation, priority 1979, dated 1981).
# *1 amine or outer side, *2 acyl side, *3 side chain or, on linkers, in order; H or OH if unused. Where a SMILES comes first, the peptide text is derived from it. [ ]: non-standard residue; d: D form. The star is where a group is joined. X1 = O=C(C(=Cc1ccccc1)N[*:1])[*:2]; Cbz = O=C(OCc1ccccc1)*
# Columns and labels:
# [1] = system: guinea pig ileum; assay: Guinea pig ileum contraction assay
# Text: This analog can also be made by solid phase protein synthesis.
# [2] = system: blood pressure; assay: Guinea pig blood pressure test; assay type: in vivo; conditions: relative to BDK = 100%
# [3] = system: renin; assay: Renin inhibition; assay type: biochemical
# [4] = Enzymolysis with chymotrypsin (stability to enzymatic hydrolysis); assay type: in vitro ADME; conditions: chymotrypsin; 2 hours at 37°, tris buffer pH 8; ninhydrin color; read-out: hydrolysis by α-chymotrypsin
# Description: (§1) One purpose in introducing unsaturation into a peptide chain is to increase the binding of the peptides to active sites and protect the peptide from enzymatic cleavage, e.g. hydrolysis, in the bloodstream, thus enhancing activity. One method of measuring the stability of peptides to enzymatic hydrolysis is to treat the peptides with chymotrypsin which is specific for phenyl bonds.
# (§2) A solution of 46 mg of N-Carbobenzoxy-L-prolyl-dehydrophenylalanyl-L-phenylalanine in 4 ml of methanol/water (1:1) was diluted to 10 ml with a 0.05 N tris buffer solution (pH 8) containing 0.46 mg of α-chymotrypsin. After standing 2 hours at 37° in a constant temperature bath, a 0.5 ml sample was treated with 0.5 ml of a 1.25% acetone solution of ninhydrin.
# [5] = system: α-chymotrypsin; assay: as above; assay type: in vitro ADME
# Description: as §1, §2
# [6] = system: angiotensin I converting enzyme; assay: Inhibition of angiotensin I converting enzyme; assay type: biochemical
compound,measurement,setting,value
"N=C(N)NCCC[C@H](NC(=O)[C@H](Cc1ccccc1)NC(=O)[C@@H]1CCCN1C(=O)[C@H](CO)NC(=O)C(=Cc1ccccc1)NC(=O)CNC(=O)[C@@H]1CCCN1C(=O)[C@@H]1CCCN1C(=O)[C@@H](N)CCCNC(=N)N)C(=O)O [dehydro BDK, Arginyl-prolyl-prolyl-glycyl-dehydrophenylalanylseryl-prolyl-phenylalanyl-arginine] (H-RPPG[X1]SPFR-OH)","increase in contraction, BDK as the standard at 100%","[1]; guinea pig ileum, relative to BDK = 100%",247.6%
same,"reduction of blood pressure, BDK as the standard at 100%",[2]; given intra-arterially,277.7%
same,"decrease of blood pressure, BDK as the standard at 100%",[2]; given intravenously,6250%
"COC(=O)[C@H](Cc1ccccc1)NC(=O)[C@@H](NC(=O)C(=Cc1ccccc1)NC(=O)[C@@H](N)CC(C)C)C(C)C [leudehydrophe-val-phe.OMe, Leucyl-dehydrophenylalanyl-valyl-phenylalanine methyl ester]",inhibition of renin,[3],inhibits renin
"O=C(O)[C@H](Cc1ccccc1)NC(=O)[C@H](Cc1ccccc1)NC(=O)[C@@H]1CCCN1C(=O)OCc1ccccc1 [ZPro-Phe-Phe.OH, reference compound] (Cbz-Pro-Phe-Phe-OH)",metabolised at 2 h,[4],5%
Tyr-DAla-Gly-ΔPhe-Met-NH2 Acetate,activity in the guinea pig ileum contraction assay,[1],active
O=C(N[C@@H](Cc1ccccc1)C(=O)O)C(=Cc1ccccc1)NC(=O)[C@@H]1CCCN1C(=O)OCc1ccccc1 [N-Carbobenzoxy-L-prolyl-dehydrophenylalanyl-L-phenylalanine],ninhydrin color formed after α-chymotrypsin treatment,"[5]; 2 hours at 37°, tris buffer pH 8, methanol/water, compared with blank solution",matched that of a blank solution
same,stability to chymotrypsin,[5]; treatment with chymotrypsin,stable to chymotrypsin
"CC(C)C[C@H](NC(=O)[C@H](Cc1c[nH]cn1)NC(=O)C(=Cc1ccccc1)NC(=O)[C@@H]1CCCN1)C(=O)O [tetrapeptide freed of the blocking group, H.Pro-ΔPhe-His-Leu.OH.2HBr]",inhibition of angiotensin I converting enzyme,[6],inactive
CC(C)C[C@H](NC(=O)[C@H](Cc1c[nH]cn1)NC(=O)C(=Cc1ccccc1)NC(=O)[C@@H]1CCCN1C(=O)OCc1ccccc1)C(=O)O [Z-Pro-ΔPhe-His-Leu.OH],inhibition of angiotensin I converting enzyme,[6],inhibit angiotensin I converting enzyme
